Assay results as given in patent US9475841B2, “Melanoma antigen peptide and uses thereof” (INSERM (INSTITUT NATIONAL DE LA SANTE ET DE LA RECHERCHE …, priority 2012, dated 2016).

Experiments:
[1] = system: MELOE-1 specific CD4+ T cells; test: MELOE-1 CD4+ T cell responses in PBMC from healthy donors: restimulation of microcultures with overlapping peptides, CD4/TNF-α staining; type: cell-based, human; settings: for Microcultures containing MELOE-1 specific CD4+ T cells (TNF-α production): positive/tested microcultures
Description: PBMC from healthy donors were stimulated with 10 μM of MELOE-1. After 14 days, the presence of CD4 T cells specific for the different regions of MELOE-1 was assessed by restimulating cells with MELOE-12-21, MELOE-111-30, MELOE-118-37 and MELOE-126-46 peptides, followed by CD4/TNF-α double staining and flow cytometry analysis. Between brackets is indicated the mean % of TNF-α producing CD4 T cells, in positive microcultures. NA: not available.
(§1) PBMC from healthy donors or melanoma patients (2·10^5 cells/well) were cultured for 14 days with 10 μM of MELOE-1 whole antigen (46 amino acids) in RPMI medium supplemented with 8% HS, 50 IU/ml of rIL-2 (Chiron, France) and L-Glutamin, in 96-well multiplates. Microcultures were then restimulated individually with each overlapping peptide (MELOE-12-21, MELOE-111-30, MELOE-118-37, MELOE-12646 or MELOE-122-46 for melanoma patients) in the presence of 10 μg/mL brefeldin A for 5 hours and the percentage of CD4^+ specific T cells was assessed by TNF-α, IFN-γ or IL-4 intracellular staining. A negative control without peptide was included in all experiments.
Our purpose was to look for the existence of class II helper epitopes all along MELOE-1 sequence (SEQ ID NO:20), in order to document the immunogenicity of the different regions of this melanoma antigen. We stimulated 2·10^7 PBMC from seven healthy donors with MELOE-1 whole antigen and tested, after a 14-day culture period the presence of CD4 T cells specific for each region of the protein. Microcultures were screened for TNFα production by CD4+ T cells, after restimulation with four MELOE-1 derived overlapping peptides (Table I), in an autopresentation assay. […] On the contrary, the central region 18-37, containing an already described DR11-restricted epitope (24-37) located just at the end of this 20-mer peptide (Rogel et al., 2011), induced specific responses in microcultures deriving from only 2/7 donors (HD9 and HD17, both expressing the DR11 element). In these two donors, we detected 6 and 7% of positive microcultures, containing between 0.6 to 3.7% of TNFα producing CD4 T cells.

[2] = system: MELOE-1 specific CD4 T cells; test: MELOE-1 CD4+ T cell responses in PBMC from melanoma patients: restimulation with peptides, CD4/IFN-γ (Th1) and CD4/IL4 (Th2) staining; type: cell-based, human; settings: for mean % of cytokine producing CD4 T cells, in positive microcultures (IFN-γ): Th1; for Th1 responses (IFN-γ positive microcultures) / Th2 responses (IL4 positive microcultures): positive/tested microcultures; for mean % of cytokine producing CD4 T cells, in positive microcultures (IL4): Th2
Description: PBMC from melanoma patients were stimulated with 10 μM of MELOE-1. After 14 days, the presence of CD4 T cells specific for the different regions of MELOE-1 was assessed by restimulating cells with MELOE-12-21, MELOE-111-30 and MELOE-122-46 peptides, followed by CD4/IFN-γ double staining for the detection of Th1 responses, and by CD4/IL4 double staining for Th2 responses. Between brackets is indicated the mean % of cytokine producing CD4 T cells, in positive microcultures.
as §1
In order to confirm the immunogenicity of each MELOE-1 regions in melanoma patients, we stimulated melanoma patients PBMC with the MELOE-1 whole protein, and tested the reactivity of stimulated lymphocytes towards the three most immunogenic regions: 2-21, 11-30, and 22-46. For this study, instead of challenging microcultures with the 18-37 peptide, that appeared poorly immunogenic, we extended the C-terminus region from 26-46 to 22-46, in order to also detect responses to our previously described HLA-DR11-restricted epitope (24-37). […] We tested the induction of CD4 specific responses from MELOE-1 stimulated PBMC of […] melanoma patients. We documented CD4 responses specific for the central region of MELOE-1 (11-30) for 7/9 patients, whereas responses specific for MELOE-12-21 and MELOE-122-46 were respectively detected in 4/9 and 5/9 patients (Table III). These responses were mainly Th1 responses (IFN-g production) while less frequent Th2 responses specific for the three regions of MELOE-1 were detected in 3/9 patients for MELOE-12-21, 2/9 patients for MELOE-111-30 and 5/9 patients for MELOE-122-46 (Table III). […] Concerning Th2 responses, much less frequent, the C-term region appeared to induce more frequently the growth of IL-4 producing CD4 T cells than the two other regions (FIG. 2A). […] In summary, stimulation of patient's PBMC with MELOE-1 induced Th1 responses specific for diverse epitopes located all along the protein sequence, and among the different regions, the central region (11-30) and the C-term region (22-46) appeared to be especially immunogenic in term of frequency of responses.

Sequence: SCVGYPDEATSREQFLPSEG (SCVGYPDEATSREQFLPSEC) [MELOE-12-21]
- mean % of TNF-α producing CD4 T cells, in positive microcultures ([1]; donor HD9): (1.4% ± 0.6)
- Microcultures containing MELOE-1 specific CD4+ T cells (TNF-α production) ([1]; donor HD9 (DPβ1*0902/1501, DQβ1*0301, DRβ1*1104/1201)): 9/96
- mean % of TNF-α producing CD4 T cells, in positive microcultures ([1]; donor HD17): (3.2% ± 1.9)
- Microcultures containing MELOE-1 specific CD4+ T cells (TNF-α production) ([1]; donor HD17 (DPβ1*0401/0301, DQβ1*0301/0603, DRβ1*1101/1301)): 6/96
- mean % of TNF-α producing CD4 T cells, in positive microcultures ([1]; donor HD22): (1%)
- Microcultures containing MELOE-1 specific CD4+ T cells (TNF-α production) ([1]; donor HD22 (DPβ1*0401/1101, DQβ1*0202, DRβ1*0701)): 1/96
- mean % of TNF-α producing CD4 T cells, in positive microcultures ([1]; donor HD24): (1.3% ± 0.8)
- Microcultures containing MELOE-1 specific CD4+ T cells (TNF-α production) ([1]; donor HD24 (DPβ1*0401/0101, DQβ1*0501/0602, DRβ1*0101/1501)): 3/96
- mean % of TNF-α producing CD4 T cells, in positive microcultures ([1]; donor HD25): (0.6% ± 0.1)
- Microcultures containing MELOE-1 specific CD4+ T cells (TNF-α production) ([1]; donor HD25 (DPβ1*0401/0402, DQβ1*0201, DRβ1*0301)): 3/96
- Microcultures containing MELOE-1 specific CD4+ T cells (TNF-α production) ([1]; donor HD27 (DQβ1*501/0201, DRβ1*0101/0301)): 0/96
- mean % of TNF-α producing CD4 T cells, in positive microcultures ([1]; donor HD28): (2.7% ± 1.2)
- Microcultures containing MELOE-1 specific CD4+ T cells (TNF-α production) ([1]; donor HD28 (DRβ1*0301)): 30/48
- % of positive microcultures ([1]; healthy donor HD28): 62%
- donors in which CD4 responses against the region were detected ([1]; seven healthy donors): 6/7
- Th1 responses, % of tested microcultures ([2]; 576 tested microcultures from melanoma patients, IFN-γ): 3.3%
- patients in which Th2 responses were detected ([2]; melanoma patients, IL4): 3/9
- patients in which CD4 responses specific for the region were detected ([2]; melanoma patients, Table III, Th1 (IFN-γ)): 4/9
- mean % of cytokine producing CD4 T cells, in positive microcultures (IFN-γ) ([2]; patient Pt ≠ 1): (0.7%)
- Th1 responses (IFN-γ positive microcultures) ([2]; patient Pt ≠ 1): 1/48
- Th2 responses (IL4 positive microcultures) ([2]; patient Pt ≠ 1): 0/48
- mean % of cytokine producing CD4 T cells, in positive microcultures (IFN-γ) ([2]; patient Pt ≠ 2): (0.8% ± 0.2)
- Th1 responses (IFN-γ positive microcultures) ([2]; patient Pt ≠ 2): 4/96
- Th2 responses (IL4 positive microcultures) ([2]; patient Pt ≠ 2): 0/96
- Th1 responses (IFN-γ positive microcultures) ([2]; patient Pt ≠ 3 (DPβ1*0201/2001, DQβ1*0303/0501, DRβ1*0101/0701)): 10/96
- mean % of cytokine producing CD4 T cells, in positive microcultures (IFN-γ) ([2]; patient Pt ≠ 3): (1.7% ± 2.9)
- Th2 responses (IL4 positive microcultures) ([2]; patient Pt ≠ 3): 0/96
- mean % of cytokine producing CD4 T cells, in positive microcultures (IL4) ([2]; patient Pt ≠ 4): (0.7%)
- Th1 responses (IFN-γ positive microcultures) ([2]; patient Pt ≠ 4): 0/48
- Th2 responses (IL4 positive microcultures) ([2]; patient Pt ≠ 4): 1/48
- mean % of cytokine producing CD4 T cells, in positive microcultures (IFN-γ) ([2]; patient Pt ≠ 5): (0.6%)
- mean % of cytokine producing CD4 T cells, in positive microcultures (IL4) ([2]; patient Pt ≠ 5): (0.7% ± 0.1)
- Th1 responses (IFN-γ positive microcultures) ([2]; patient Pt ≠ 5): 1/48
- Th2 responses (IL4 positive microcultures) ([2]; patient Pt ≠ 5): 2/48
- Th1 responses (IFN-γ positive microcultures) ([2]; patient Pt ≠ 6): 0/48
- Th2 responses (IL4 positive microcultures) ([2]; patient Pt ≠ 6): 0/48
- Th1 responses (IFN-γ positive microcultures) ([2]; patient Pt ≠ 7): 0/48
- Th2 responses (IL4 positive microcultures) ([2]; patient Pt ≠ 7): 0/48
- Th1 responses (IFN-γ positive microcultures) ([2]; patient Pt ≠ 8): 0/48
- Th2 responses (IL4 positive microcultures) ([2]; patient Pt ≠ 8): 0/48
- mean % of cytokine producing CD4 T cells, in positive microcultures (IL4) ([2]; patient Pt ≠ 9): (0.6%)
- Th1 responses (IFN-γ positive microcultures) ([2]; patient Pt ≠ 9): 0/48
- Th2 responses (IL4 positive microcultures) ([2]; patient Pt ≠ 9): 1/48
